Source: publication PMC9668969 (Nature Communications, 2022)
Values joined by “and” are separate entries in the source; they are usually repeats but may differ in a detail not shown here. Equal entries are not always repeated.

System: WT ELIC
Assay: Fluorescence stopped-flow liposomal Tl+ flux assay, symmetric liposomes
Format: biochemical, Erwinia chrysanthemi
Set-up: Tl+ flux quenching rate, Avg. / Tl+ flux quenching rate: unit not given here
Conditions: for Avg (stopped-flow fluorescence quenching rate) / Rate (stopped-flow fluorescence quenching rate): WT in PC liposomes; for Avg (stopped-flow fluorescence quenching rate): average of experiments; for Rate (stopped-flow fluorescence quenching rate) / Tl+ flux quenching rate: single experiments
Method: The fluorescence sequential-mixing stopped-flow liposomal flux measurements were carried using an SX20 stopped-flow spectrofluorometer (Applied Photophysics) and Pro-Data SX software[13],[30]. 7.5 mg of the respective lipid mixture (POPC, 1:1 POPC: POPE, 1:1 POPC:POPG, 3:1 POPC:POPE, 3:1 POPC:POPG, 2:1:1 POPC:POPE:POPG) was dried in a glass vial to a thin film under a constant stream of N2. The lipids were then further dried under vacuum in a desiccator overnight. The following day the lipids were hydrated in 500 µl of reconstitution buffer (100 mM NaNO3, 10 mM HEPES, pH 7) (Buffer R), 250 µl of 75 mM 8-Aminonaphthalene-1,3,6-Trisulfonic Acid (ANTS, ThermoFisher Scientific) in buffer R, and doped with ~18 mg of CHAPS (Anatrace). The mixture was vortexed and then sonicated with heat until completely solubilized. Following the sonication, the solution was brought to RT then 3.5 µl of 6.7 mg/ml ELIC in Buffer A with 0.02% DDM was added (3 µg per mg of lipid). This combined solution was incubated at RT for 30 min, followed by the addition of 1 ml of 1:1 v/v SM-2 BioBeads in Buffer R and an additional 250 µl of 75 mM ANTS in Buffer R. This mixture was incubated at RT for 2.5 hr with gentle mixing. The liposome suspension was then extruded with an Avanti mini-extruder and 0.1 µm membrane (30×). The extruded liposomes were stored at 13 °C overnight with gentle rotation. The next day, the liposomes were diluted to 2.5 mL using assay buffer (140 mM NaNO3, 10 mM HEPES, pH 7) (Stopped-flow Buffer A), loaded into a PD-10 desalting column (Cytiva), eluted with 3 mL of Stopped-flow Buffer A and subsequently diluted 5-fold with Stopped-flow Buffer A.
Using propylamine as the agonist, the assay and analysis was carried out as previously described[13],[30]. ELIC-containing liposomes were first mixed 1:1 with Buffer A containing 2× the concentration of propylamine. After a variable delay of 10 ms to 25 s, the sample was then mixed 1:1 with a quenching buffer (90 mM NaNO3, 50 mM TlNO3, 10 mM HEPES, pH 7), and ANTS fluorescence (ex. 360 nm, fluorescence above 420 nm) was recorded for 1 s. For each delay time, 5 repeat measurements were obtained. The data were collected using Applied Photophysics Pro-Data SX software. The fluorescence quenching traces were fit to a stretched exponential (Eq. 2a) and the rate of Tl^+ influx was determined at 2 ms (Eq. 2b).2a Ft=F∞+F0−F∞⋅e^−t/τ^β 2b kt=β/τ⋅2ms/τ^(β−1) where Ft, F∞, F0 are the fluorescence at time t, final fluorescence and initial fluorescence. τ is the time constant, β the stretched exponential factor, and kt the calculated rate of Tl^+ influx at 2 ms. The time course of desensitization was also fit to a double exponential and a weighted time constant was calculated as was done for the patch-clamp data using Origin 2019b. All replicates were taken from independent samples.

## CCCN [propylamine]
1 mM PA, delay time 0.1
  Avg (stopped-flow fluorescence quenching rate): 0.1082
1 mM PA, delay time 0.25
  Avg (stopped-flow fluorescence quenching rate): 0.06695
1 mM PA, delay time 0.5
  Avg (stopped-flow fluorescence quenching rate): 0.1937
1 mM PA, delay time 1
  Avg (stopped-flow fluorescence quenching rate): 0.6717
1 mM PA, delay time 2.5
  Avg (stopped-flow fluorescence quenching rate): 0.1973
1 mM PA, delay time 5
  Avg (stopped-flow fluorescence quenching rate): 0.1019
1 mM PA, delay time 10
  Avg (stopped-flow fluorescence quenching rate): 0.1686
3 mM PA, delay time 0
  Avg (stopped-flow fluorescence quenching rate): 0
  Rate (stopped-flow fluorescence quenching rate): 0
3 mM PA, delay time 0.025
  Avg (stopped-flow fluorescence quenching rate): 24.9362
3 mM PA, delay time 0.05
  Avg (stopped-flow fluorescence quenching rate): 279.785
3 mM PA, delay time 0.1
  Avg (stopped-flow fluorescence quenching rate): 279.666
3 mM PA, delay time 0.25
  Avg (stopped-flow fluorescence quenching rate): 300.719
3 mM PA, delay time 0.5
  Avg (stopped-flow fluorescence quenching rate): 352.59
3 mM PA, delay time 1
  Avg (stopped-flow fluorescence quenching rate): 284.973
3 mM PA, delay time 2.5
  Avg (stopped-flow fluorescence quenching rate): 176.344
3 mM PA, delay time 5
  Avg (stopped-flow fluorescence quenching rate): 145.791
3 mM PA, delay time 10
  Avg (stopped-flow fluorescence quenching rate): 107.502
10 mM PA, delay time 0
  Avg (stopped-flow fluorescence quenching rate): 0
  Rate (stopped-flow fluorescence quenching rate): 0
10 mM PA, delay time 0.01
  Avg (stopped-flow fluorescence quenching rate): 3.242
10 mM PA, delay time 0.025
  Avg (stopped-flow fluorescence quenching rate): 7.793
10 mM PA, delay time 0.05
  Avg (stopped-flow fluorescence quenching rate): 10.0904
10 mM PA, delay time 0.05 as printed in r31 (between 0.25 and 1)
  Avg (stopped-flow fluorescence quenching rate): 13.718
10 mM PA, delay time 0.1
  Avg (stopped-flow fluorescence quenching rate): 10.8806
10 mM PA, delay time 0.25
  Avg (stopped-flow fluorescence quenching rate): 11.6946
10 mM PA, delay time 1
  Avg (stopped-flow fluorescence quenching rate): 9.9293
10 mM PA, delay time 2.5
  Avg (stopped-flow fluorescence quenching rate): 4.516
10 mM PA, delay time 5
  Avg (stopped-flow fluorescence quenching rate): 0.8684
10 mM PA, delay time 10, listed as PA
  Rate (stopped-flow fluorescence quenching rate): 0.134 and 0.08335 and 0.06725
30 mM PA, delay time 0
  Avg (stopped-flow fluorescence quenching rate): 0
  Rate (stopped-flow fluorescence quenching rate): 0
30 mM PA, delay time 0.01
  Avg (stopped-flow fluorescence quenching rate): 8.996
30 mM PA, delay time 0.025
  Avg (stopped-flow fluorescence quenching rate): 9.575
30 mM PA, delay time 0.05
  Avg (stopped-flow fluorescence quenching rate): 10.6204
30 mM PA, delay time 0.1
  Avg (stopped-flow fluorescence quenching rate): 12.7838
30 mM PA, delay time 0.25
  Avg (stopped-flow fluorescence quenching rate): 12.1642
30 mM PA, delay time 0.5
  Avg (stopped-flow fluorescence quenching rate): 10.2984
30 mM PA, delay time 1
  Avg (stopped-flow fluorescence quenching rate): 6.967
30 mM PA, delay time 2.5
  Avg (stopped-flow fluorescence quenching rate): 2.226
30 mM PA, delay time 5
  Avg (stopped-flow fluorescence quenching rate): 0.2318
30 mM PA, delay time 25, listed as PA
  Rate (stopped-flow fluorescence quenching rate): 0.1998 and 0.3265
WT 1:1 PC:PE 10 mM PA, delay 0.1 s, listed as PA
  Tl+ flux quenching rate: 18.5265 and 20.1957 and 27.1402
WT 1:1 PC:PE 10 mM PA, delay 0.25 s, listed as PA
  Tl+ flux quenching rate: 14.1307 and 20.5822 and 22.3191
WT 1:1 PC:PE 10 mM PA, delay 5 s, listed as PA
  Tl+ flux quenching rate: 8.309 and 12.2434 and 8.587
WT 3:1 PC:PE 10 mM PA, delay 0.05 s, listed as PA
  Tl+ flux quenching rate: 17.3372 and 23.7705 and 12.3709
WT 3:1 PC:PE 10 mM PA, delay 0.1 s, listed as PA
  Tl+ flux quenching rate: 25.2651 and 29.8644 and 21.5739
WT 3:1 PC:PE 10 mM PA, delay 0.5 s, listed as PA
  Tl+ flux quenching rate: 30.0354 and 34.8933 and 24.5328
WT 3:1 PC:PG 10 mM PA, delay 1 s, listed as PA
  Tl+ flux quenching rate: 9.374 and 10.6202 and 12.8093
WT 3:1 PC:PG 10 mM PA, delay 2.5 s, listed as PA
  Tl+ flux quenching rate: 7.906 and 8.478 and 12.3833
WT 3:1 PC:PG 10 mM PA, delay 5 s, listed as PA
  Tl+ flux quenching rate: 5.2352 and 10.1414 and 9.072
WT PC 10 mM PA, delay 10 s, listed as PA
  Tl+ flux quenching rate: 0.134 and 0.08335 and 0.06725
